The values that follow come from paper PMC6749524, “Identification of New Antifungal Agents Targeting Chitin Synthesis by a Chemical-Genetic Method” (Molecules, 2019).

Like-named read-outs stand apart in the source and are kept apart here.

Assay [1] relates to WT S. cerevisiae strain BY4741. Description: MIC in compound library screening assay, WT yeast. Type of assay: cell-based. The settings on record: WT BY4741, YPD, 30 °C, 24 hours, MIC90. On the procedure: (§1) The compound library is a combination of synthetic compounds from Enamine (Kyiv, Ukraine) and Life Chemicals Inc. (Burlington, ON, Canada) and natural products from the Institute of Medicinal Biotechnology. We used WT, chs3∆, and fks1∆ yeast strains to screen new antifungal agents. The screening assays were performed in 96-well plates in a final volume of 200 μL. Fresh yeast cells (OD600 = 0.8) were diluted to 10^5 CFU/mL in YPD medium. We added 198 μL of diluted culture and 2 μL of compounds into each well, and the final concentration of compounds was 100 μg/mL with 1% DMSO. The yeast cells were incubated at 30 °C for 24 hours to assess the growth. For the compounds that inhibited the growth of all three yeast strains, they were serially diluted to determine the minimal inhibit concentration (MIC) with the same method. MIC endpoints were defined as the lowest concentration of drugs that cause a 90% decrease in growth compared to the drug-free control (MIC90).

In assay [2] the test system is chs3∆ (chs3::KanMX in BY4741). Description: MIC in compound library screening assay, chs3∆ yeast. Type of assay: cell-based, S. cerevisiae. On the procedure:
as §1

The test system of assay [3] is fks1∆ (fks1::KanMX in BY4741). Description: MIC in compound library screening assay, fks1∆ yeast. Type of assay: cell-based, S. cerevisiae. As for the experimental part:
as §1

The test system of assay [4] is chitin level in C. albicans. Description: CFW staining of chitin, fluorescence microscopy. The settings on record: IMB-D10 12.5 μg/mL or IMB-F4 25 μg/mL, 5 hours. Type of assay: cell-based, Candida albicans. As for the experimental part:
(§2) WT S. cerevisiae and C. albicans ATCC10231 were grown to 10^5 CFU/mL in YPD medium and then treated with IMB-D10 (12.5 or 25 μg/mL), IMB-F4 (12.5 or 25 μg/mL), or 0.25% DMSO for 3 and 5 hours at 30 ℃. Cells were collected by centrifugation at 1500 g for 5 min and resuspended in PBS. Some cells were examined using 100 × / 1.25 oil immersion objective (DM2500, Leica) and analyzed by Leica las. Some cells were stained with 100 μg/mL Calcofluor White M2R (CFW, Sigma-Aldrich, St. Louis, MO, USA for 3 min and washed three times with water. Then, the cells were examined under the UV light for fluorescent signals.

Assay [5] concerns budding yeast S. cerevisiae. The experiment in a line: Growth inhibition, broth microdilution MIC. Type of assay: cell-based. On the procedure:
(§3) The experiments were carried out using a broth microdilution protocol modified from the Clinical and Laboratory Standards Institute M-27A methods. WT S. cerevisiae and C. albicans were grown to mid-log phase in YPD medium. The cells were collected by centrifugation at 1500 g for 5 min and diluted with RPMI 1640 medium to the density of 1 × 10^4 CFU/mL. Then, the samples with various concentrations of compounds were dispensed at 0.2 mL/well in sterile 96-well microplates. The final concentrations of compounds ranged from 3.125 to 100 μg/mL with serial two-fold dilution. After incubation at 30 °C (S. cerevisiae) or 35 °C (C. albicans) for 24 hours, the minimal inhibitory concentration (MIC) was determined by measuring the optical density of the wells with cell cultures. The antifungal agent caspofungin was used as a positive control. All tests were performed in triplicate.
For orientation: Dilution methods test growth across graded concentrations, often in twofold steps.

Assay [6] deals with C. albicans ATCC10231. Description: Growth inhibition, broth microdilution MIC. It is filed as cell-based, Candida albicans. As for the experimental part: as §3
Assay [7] relates to WT yeast cells (BY4741). Description: Growth curve assay (OD600 over time). Type of assay: cell-based, S. cerevisiae. On the procedure: Fresh cell cultures of WT yeast S. cerevisiae and Candida albicans ATCC10231 (OD600 = 0.8) were diluted in YPD medium (OD600 = 0.05). Then, IMB-D10 and IMB-F4 were added at concentrations ranging from 12.5 to 100 μg/mL. The cells were collected at different time points, and OD600 was measured with Multi-label Reader. Three experiments were performed independently, and the mean ± SD was calculated.

Assay [8] deals with Escherichia coli ATCC 25922. The experiment in a line: Growth inhibition of bacteria. Type of assay: cell-based. The settings on record: Escherichia coli ATCC 25922, at 100 μg/mL.
Assay [9] deals with WT yeast cells. The experiment in a line: Cell division morphology, light microscopy. It is filed as cell-based, S. cerevisiae. The settings on record: treatment for 5 hours at 30 °C (IMB-D10 25 μg/mL). On the procedure:
as §2

For assay [10], the system named is Chs1. Description: iTRAQ protein level of chitin synthase. Type of assay: cell-based, S. cerevisiae. The settings on record: 25 μg/mL, 16 hours. On the procedure:
(§4) WT cells were grown to 10^5 CFU/mL in YPD medium and then treated with 25 μg/mL compounds or 0.25% DMSO for 16 hours at 30 °C. The cells were collected by centrifugation at 1500 g for 5 min and then stored at −80 °C. The frozen samples were grounded to a fine powder with liquid nitrogen and then transferred to an Eppendorf tube with phenol extraction buffer containing 1 mM Phenylmethanesulfonyl fluoride (PMSF). The samples were lysed with sonication, and proteins were extracted with phenol and then precipitated with ammonium acetate/methanol. The methanol was excluded by acetone, and the precipitates were collected by centrifugation at 12,000 g for 10 min at 4 °C. The precipitates were dried at room temperature for 3 min and dissolved in SDS lysis buffer for 2 hours. The samples were further centrifuged at 12,000 g for 10 min, and the collected supernatants were centrifuged again to remove precipitation completely. After the determination of protein concentration using Pierce^TM BCA Protein Assay kit (Thermo Scientific, Rockford, IL, USA), the protein samples were aliquoted for storage at −80 °C.
(§5) The Filter Aided Sample Preparation (FASP) digestion was performed according to a universal sample preparation method for proteome analysis. Peptides were labeled by iTRAQ using iTRAQ Reagents Multiplex Kit (AB SCIEX, Framingham, MA, USA) and then were fractionated by SCX chromatography using the AKTA Purifier system (GE Healthcare, Stockholm, Sweden). LC-MS/MS analysis was performed on Nano LC-1D plus (Eksigent, San Francisco, CA, USA) that was coupled to Triple TOF 6600 spectrometer (AB SCIEX, Framingham, MA, USA) for 50 min. The mass spectrometer was operated in positive ion mode. The MS/MS data were analyzed for protein identification and quantification using ProteinPilot software (v.5). The local false discovery rate was estimated with the integrated PSPEP tool in the ProteinPilot Software to be 1% after searching against a decoy concatenated UniProt S. cerevisiae protein database. For a protein showing differential expression, it must have been identified and quantified with at least one significant peptide, and the p-values of the proteins quantitation should be less than 0.05 and fold change ≥1.5.

Assay [11] deals with Chs2. Description: iTRAQ protein level of chitin synthase. The settings on record: 25 μg/mL, 16 hours. It is filed as cell-based, S. cerevisiae. As for the experimental part:
as §4, §5

Assay [12] has as its system Chs3. Description: iTRAQ protein level of chitin synthase. It is filed as cell-based, S. cerevisiae. The settings on record: 25 μg/mL, 16 hours. As for the experimental part:
as §4, §5

Chain of Chs3 (P29465 whole entry): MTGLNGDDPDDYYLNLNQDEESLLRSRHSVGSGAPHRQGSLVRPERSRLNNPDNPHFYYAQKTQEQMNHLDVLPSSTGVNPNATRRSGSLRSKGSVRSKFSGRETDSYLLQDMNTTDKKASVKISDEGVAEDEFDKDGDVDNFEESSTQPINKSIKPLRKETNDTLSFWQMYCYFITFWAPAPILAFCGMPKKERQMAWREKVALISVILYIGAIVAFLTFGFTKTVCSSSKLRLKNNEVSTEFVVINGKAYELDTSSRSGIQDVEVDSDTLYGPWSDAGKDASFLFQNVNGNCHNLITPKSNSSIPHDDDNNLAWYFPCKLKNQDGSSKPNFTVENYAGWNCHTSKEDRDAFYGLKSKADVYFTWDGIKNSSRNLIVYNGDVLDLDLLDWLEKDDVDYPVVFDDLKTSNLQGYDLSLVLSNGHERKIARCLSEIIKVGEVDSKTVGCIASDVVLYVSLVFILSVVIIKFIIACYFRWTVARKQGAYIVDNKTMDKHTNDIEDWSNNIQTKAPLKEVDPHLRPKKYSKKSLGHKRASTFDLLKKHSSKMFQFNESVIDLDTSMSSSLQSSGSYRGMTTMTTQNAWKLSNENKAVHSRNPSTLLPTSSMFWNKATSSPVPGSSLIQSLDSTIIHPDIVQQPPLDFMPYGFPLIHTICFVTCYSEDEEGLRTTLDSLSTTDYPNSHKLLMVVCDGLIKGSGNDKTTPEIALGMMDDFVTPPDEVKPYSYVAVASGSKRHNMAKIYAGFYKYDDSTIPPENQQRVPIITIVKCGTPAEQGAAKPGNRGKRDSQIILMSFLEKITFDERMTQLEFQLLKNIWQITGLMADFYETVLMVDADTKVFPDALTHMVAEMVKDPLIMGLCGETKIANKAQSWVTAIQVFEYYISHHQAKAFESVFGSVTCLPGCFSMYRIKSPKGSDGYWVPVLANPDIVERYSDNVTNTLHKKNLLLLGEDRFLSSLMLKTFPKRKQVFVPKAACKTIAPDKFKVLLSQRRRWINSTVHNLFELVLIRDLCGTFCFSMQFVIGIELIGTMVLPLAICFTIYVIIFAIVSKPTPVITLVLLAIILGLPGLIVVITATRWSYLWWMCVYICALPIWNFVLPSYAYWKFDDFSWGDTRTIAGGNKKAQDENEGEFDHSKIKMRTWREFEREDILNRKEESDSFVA
Chain of Chs2 (P14180 whole entry): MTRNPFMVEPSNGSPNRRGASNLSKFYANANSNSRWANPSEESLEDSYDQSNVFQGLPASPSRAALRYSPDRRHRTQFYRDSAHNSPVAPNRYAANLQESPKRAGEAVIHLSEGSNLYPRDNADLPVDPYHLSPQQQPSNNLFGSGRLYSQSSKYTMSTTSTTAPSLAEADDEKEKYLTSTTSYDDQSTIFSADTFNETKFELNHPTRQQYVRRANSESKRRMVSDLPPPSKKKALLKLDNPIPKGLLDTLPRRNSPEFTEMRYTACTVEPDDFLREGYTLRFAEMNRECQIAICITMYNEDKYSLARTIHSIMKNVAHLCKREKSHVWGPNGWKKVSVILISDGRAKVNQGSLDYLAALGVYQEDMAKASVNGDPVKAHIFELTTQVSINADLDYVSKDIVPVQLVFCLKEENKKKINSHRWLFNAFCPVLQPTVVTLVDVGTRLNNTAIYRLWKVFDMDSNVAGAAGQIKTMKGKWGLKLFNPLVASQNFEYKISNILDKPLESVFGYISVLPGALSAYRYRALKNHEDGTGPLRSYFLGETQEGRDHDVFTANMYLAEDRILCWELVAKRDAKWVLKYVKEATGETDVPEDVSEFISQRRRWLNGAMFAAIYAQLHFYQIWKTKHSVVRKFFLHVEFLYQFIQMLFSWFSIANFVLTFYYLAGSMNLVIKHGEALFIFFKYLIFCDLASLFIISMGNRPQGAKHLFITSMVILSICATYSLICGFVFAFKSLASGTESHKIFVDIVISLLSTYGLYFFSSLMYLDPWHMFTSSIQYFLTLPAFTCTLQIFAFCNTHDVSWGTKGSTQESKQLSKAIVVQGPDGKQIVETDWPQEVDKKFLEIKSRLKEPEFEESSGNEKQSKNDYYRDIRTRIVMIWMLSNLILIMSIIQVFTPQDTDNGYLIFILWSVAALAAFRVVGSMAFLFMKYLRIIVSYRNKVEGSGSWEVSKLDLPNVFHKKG
Chain of Chs1 (P08004 whole entry): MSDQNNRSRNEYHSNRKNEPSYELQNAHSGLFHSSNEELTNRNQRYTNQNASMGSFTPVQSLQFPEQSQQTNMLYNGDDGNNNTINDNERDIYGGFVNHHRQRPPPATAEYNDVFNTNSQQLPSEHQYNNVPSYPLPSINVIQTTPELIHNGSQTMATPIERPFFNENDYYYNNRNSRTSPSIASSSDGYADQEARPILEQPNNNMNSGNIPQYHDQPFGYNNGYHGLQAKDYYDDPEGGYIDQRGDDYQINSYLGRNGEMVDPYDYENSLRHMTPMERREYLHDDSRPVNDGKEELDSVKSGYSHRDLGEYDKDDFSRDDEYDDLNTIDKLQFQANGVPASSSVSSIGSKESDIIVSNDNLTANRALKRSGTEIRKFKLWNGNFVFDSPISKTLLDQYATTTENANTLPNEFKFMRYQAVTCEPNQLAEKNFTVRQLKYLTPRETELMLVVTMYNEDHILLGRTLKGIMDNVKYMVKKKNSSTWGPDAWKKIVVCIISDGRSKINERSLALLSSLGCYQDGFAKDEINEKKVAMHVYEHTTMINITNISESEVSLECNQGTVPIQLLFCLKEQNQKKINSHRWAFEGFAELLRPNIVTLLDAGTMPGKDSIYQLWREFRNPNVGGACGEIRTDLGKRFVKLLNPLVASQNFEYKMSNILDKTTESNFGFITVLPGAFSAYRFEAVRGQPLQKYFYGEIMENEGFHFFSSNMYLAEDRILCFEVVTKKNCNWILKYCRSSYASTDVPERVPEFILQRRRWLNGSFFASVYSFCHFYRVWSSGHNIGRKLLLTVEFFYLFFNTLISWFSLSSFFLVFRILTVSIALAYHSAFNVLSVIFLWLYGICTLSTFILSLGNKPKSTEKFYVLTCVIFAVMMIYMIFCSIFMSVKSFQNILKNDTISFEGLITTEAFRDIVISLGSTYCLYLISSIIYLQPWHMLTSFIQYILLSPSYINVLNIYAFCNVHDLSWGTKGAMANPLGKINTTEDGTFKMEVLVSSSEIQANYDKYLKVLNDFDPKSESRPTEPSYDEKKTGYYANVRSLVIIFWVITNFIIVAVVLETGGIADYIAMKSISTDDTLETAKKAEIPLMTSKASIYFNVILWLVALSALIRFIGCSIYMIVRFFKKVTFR

Regarding `COc1cc(OC)cc(C(=O)N(CCn2ccnc2)c2nc3ccc(OC)cc3s2)c1` [IMB-F4, N-(2-(1H-imidazol-1-yl)ethyl)-3,5-dimethoxy-N-(6-methoxybenzo[d]thiazol-2-yl)benzamide], the minimal inhibitory concentration (MIC) (in general, the least concentration at which growth counts as inhibited) in assay [1] (Saccharomyces cerevisiae, read-out: MIC, WT) was greater than 100 µg/mL; in assay [2] (Saccharomyces cerevisiae, 24 h, read-out: MIC, chs3∆, chs3∆ mutant, YPD, 30 °C, 24 hours, MIC90) it was greater than 100 µg/mL; in [3] (Saccharomyces cerevisiae, 24 h, read-out: MIC, fks1∆), 50 µg/mL; in [6] (Candida albicans, read-out: MIC), greater than 100 µg/mL. In assay [4], the “chitin level by CFW staining” value is given as “decreased chitin level”. For the same compound, the cell growth inhibition result in assay [5] (S. cerevisiae, at 100 μg/mL) was “did not inhibit cell growth”. Besides, the “growth of yeast cells over time (OD)” value in [7] is given as “dose-dependent slow growth”. In assay [8], the growth inhibition result is recorded as “did not inhibit the growth”. Besides, the “cell division / cell separation morphology” value in [9] is “normal cell separation”. Moreover, the “relative abundance of Chs1 compared with cells treated with DMSO” value in assay [10] is “remained similar”. The “relative abundance of Chs2 compared with cells treated with DMSO” value in assay [11] is given as “remained similar”. Moreover, the “relative abundance of Chs3 compared with cells treated with DMSO” value in assay [12] is reported as “remained similar”.
Regarding “N-(2-(diethylamino) ethyl)-N-(7-hydroxy-4-methoxybenzo[d]thiazol -2-yl)-2-oxo-2H-chromene-3-carboxamide [IMB-D10]”, the “MIC, WT” value in assay [1] came to 50 µg/mL. Moreover, the “MIC, chs3∆” value in assay [2] (chs3∆ mutant, YPD, 30 °C, 24 hours, MIC90) came out at 100 µg/mL. Further, the “MIC, fks1∆” value in assay [3] (fks1∆ mutant, YPD, 30 °C, 24 hours, MIC90) worked out at 25 µg/mL. For the same compound, the “chitin level by CFW staining” value in assay [4] was “decreased chitin level”. The minimal inhibitory concentration (MIC) in assay [5] (budding yeast S. cerevisiae) amounted to 50 µg/mL; in [6], 100 µg/mL. In addition, in [7], the “growth of yeast cells over time (OD)” value is recorded as “dose-dependent slow growth”. The growth inhibition result in assay [8] is “did not inhibit the growth”. Further, the “cell division / cell separation morphology” value in assay [9] is given as “some yeast cells failed to divide”. Further, the “relative abundance of Chs1 compared with cells treated with DMSO” value in assay [10] was found to be 22 ± 5.10%. Besides, the “relative abundance of Chs2 compared with cells treated with DMSO” value in assay [11] stood at 21.33 ± 6.18%. Further, the “relative abundance of Chs3 compared with cells treated with DMSO” value in [12] was 18.33 ± 1.89%.
